Experiments:
Details in all cases: in vivo
Mus musculus [1] = experiment: Tested for biodistribution of radioactivity after 3h of intravenous injection in mice intestine; assay type: ADME, organism-based
Mus musculus [2] = experiment: Tested for biodistribution of radioactivity after 24 hr of intravenous injection in mice intestine; assay type: ADME, organism-based
Mus musculus [3] = experiment: Tested for biodistribution of radioactivity after 72 hr of intravenous injection in mice lung; assay type: ADME, organism-based
Mus musculus [4] = experiment: Tested for biodistribution of radioactivity after 3h of intravenous injection in mice stomach; assay type: ADME, organism-based
Mus musculus [5] = experiment: Tested for biodistribution of radioactivity after 24 hr of intravenous injection in mice urine; assay type: ADME, organism-based
Mus musculus [6] = experiment: Tested for biodistribution of radioactivity after 24 hr of intravenous injection in mice kidneys; assay type: ADME, organism-based, Kidney
Mus musculus [7] = experiment: Tested for biodistribution of radioactivity after 6 hr of intravenous injection in mice stomach; assay type: ADME, organism-based
Mus musculus [8] = experiment: Tested for biodistribution of radioactivity after 3h of intravenous injection in mice lung; assay type: ADME, organism-based
Mus musculus [9] = experiment: Tested for biodistribution of radioactivity after 10 min of intravenous injection in mice stomach; assay type: ADME, organism-based
Mus musculus [10] = experiment: Tested for biodistribution of radioactivity after 24 hr of intravenous injection in mice neck; assay type: ADME, organism-based
Mus musculus [11] = experiment: Tested for biodistribution of radioactivity after 10 min of intravenous injection in mice neck; assay type: ADME, organism-based
Mus musculus [12] = experiment: Tested for biodistribution of radioactivity after 24 hr of intravenous injection in mice stomach; assay type: ADME, organism-based
Mus musculus [13] = experiment: Tested for biodistribution of radioactivity after 6 hr of intravenous injection in mice blood; assay type: ADME, organism-based
Mus musculus [14] = experiment: Tested for biodistribution of radioactivity after 1 hr of intravenous injection in mice kidneys; assay type: ADME, organism-based, Kidney
Mus musculus [15] = experiment: Tested for biodistribution of radioactivity after 1 hr of intravenous injection in mice intestine; assay type: ADME, organism-based
Mus musculus [16] = experiment: Tested for biodistribution of radioactivity after 48 hr of intravenous injection in mice liver; assay type: ADME, organism-based
Mus musculus [17] = experiment: Tested for biodistribution of radioactivity after 10 min of intravenous injection in mice blood; assay type: ADME, organism-based
Mus musculus [18] = experiment: Tested for biodistribution of radioactivity after 48 hr of intravenous injection in mice stomach; assay type: ADME, organism-based
Mus musculus [19] = experiment: Tested for biodistribution of radioactivity after 1 hr of intravenous injection in mice spleen; assay type: ADME, organism-based
Mus musculus [20] = experiment: Tested for biodistribution of radioactivity after 6 hr of intravenous injection in mice intestine; assay type: ADME, organism-based
Mus musculus [21] = experiment: Tested for biodistribution of radioactivity after 3h of intravenous injection in mice liver; assay type: ADME, organism-based
Mus musculus [22] = experiment: Tested for biodistribution of radioactivity after 6 hr of intravenous injection in mice spleen; assay type: ADME, organism-based
Mus musculus [23] = experiment: Tested for biodistribution of radioactivity after 1 hr of intravenous injection in mice stomach; assay type: ADME, organism-based
Mus musculus [24] = experiment: Tested for biodistribution of radioactivity after 6 hr of intravenous injection in mice liver; assay type: ADME, organism-based
Mus musculus [25] = experiment: Tested for biodistribution of radioactivity after 24 hr of intravenous injection in mice blood; assay type: ADME, organism-based
Mus musculus [26] = experiment: Tested for biodistribution of radioactivity after 72 hr of intravenous injection in mice spleen; assay type: ADME, organism-based
Mus musculus [27] = experiment: Tested for biodistribution of radioactivity after 10 min of intravenous injection in mice spleen; assay type: ADME, organism-based
Mus musculus [28] = experiment: Tested for biodistribution of radioactivity after 3h of intravenous injection in mice kidneys; assay type: ADME, organism-based, Kidney
Mus musculus [29] = experiment: Tested for biodistribution of radioactivity after 24 hr of intravenous injection in mice liver; assay type: ADME, organism-based
Mus musculus [30] = experiment: Tested for biodistribution of radioactivity after 10 min of intravenous injection in mice kidneys; assay type: ADME, organism-based
Mus musculus [31] = experiment: Tested for biodistribution of radioactivity after 24 hr of intravenous injection in mice spleen; assay type: ADME, organism-based
Mus musculus [32] = experiment: Tested for biodistribution of radioactivity after 1 hr of intravenous injection in mice lung; assay type: ADME, organism-based
Mus musculus [33] = experiment: Tested for biodistribution of radioactivity after 6 hr of intravenous injection in mice neck; assay type: ADME, organism-based
Mus musculus [34] = experiment: Tested for biodistribution of radioactivity after 48 hr of intravenous injection in mice lung; assay type: ADME, organism-based
Mus musculus [35] = experiment: Tested for biodistribution of radioactivity after 48 hr of intravenous injection in mice neck; assay type: ADME, organism-based
Mus musculus [36] = experiment: Tested for biodistribution of radioactivity after 3h of intravenous injection in mice spleen; assay type: ADME, organism-based
Mus musculus [37] = experiment: Tested for biodistribution of radioactivity after 6 hr of intravenous injection in mice kidneys; assay type: ADME, organism-based, Kidney
Mus musculus [38] = experiment: Tested for biodistribution of radioactivity after 48 hr of intravenous injection in mice kidneys; assay type: ADME, organism-based
Mus musculus [39] = experiment: Tested for biodistribution of radioactivity after 48 hr of intravenous injection in mice blood; assay type: ADME, organism-based
Mus musculus [40] = experiment: Tested for biodistribution of radioactivity after 1 hr of intravenous injection in mice neck; assay type: ADME, organism-based
Mus musculus [41] = experiment: Tested for biodistribution of radioactivity after 1 hr of intravenous injection in mice blood; assay type: ADME, organism-based
Mus musculus [42] = experiment: Tested for biodistribution of radioactivity after 72 hr of intravenous injection in mice neck; assay type: ADME, organism-based
Mus musculus [43] = experiment: Tested for biodistribution of radioactivity after 10 min of intravenous injection in mice intestine; assay type: ADME, organism-based
Mus musculus [44] = experiment: Tested for biodistribution of radioactivity after 6 hr of intravenous injection in mice lung; assay type: ADME, organism-based
Mus musculus [45] = experiment: Tested for biodistribution of radioactivity after 3h of intravenous injection in mice neck; assay type: ADME, organism-based
Mus musculus [46] = experiment: Tested for biodistribution of radioactivity after 72 hr of intravenous injection in mice stomach; assay type: ADME, organism-based
Mus musculus [47] = experiment: Tested for biodistribution of radioactivity after 10 min of intravenous injection in mice lung; assay type: ADME, organism-based
Mus musculus [48] = experiment: Tested for biodistribution of radioactivity after 10 min of intravenous injection in mice liver; assay type: ADME, organism-based
Mus musculus [49] = experiment: Tested for biodistribution of radioactivity after 48 hr of intravenous injection in mice intestine; assay type: ADME, organism-based
Mus musculus [50] = experiment: Tested for biodistribution of radioactivity after 72 hr of intravenous injection in mice intestine; assay type: ADME, organism-based
Mus musculus [51] = experiment: Tested for biodistribution of radioactivity after 3h of intravenous injection in mice blood; assay type: ADME, organism-based
Mus musculus [52] = experiment: Tested for biodistribution of radioactivity after 72 hr of intravenous injection in mice liver; assay type: ADME, organism-based
Mus musculus [53] = experiment: Tested for biodistribution of radioactivity after 72 hr of intravenous injection in mice kidneys; assay type: ADME, organism-based
Mus musculus [54] = experiment: Tested for biodistribution of radioactivity after 72 hr of intravenous injection in mice blood; assay type: ADME, organism-based
Mus musculus [55] = experiment: Tested for biodistribution of radioactivity after 48 hr of intravenous injection in mice spleen; assay type: ADME, organism-based
Mus musculus [56] = experiment: Tested for biodistribution of radioactivity after 24 hr of intravenous injection in mice feces; assay type: ADME, organism-based
Mus musculus [57] = experiment: Tested for biodistribution of radioactivity after 1 hr of intravenous injection in mice liver; assay type: ADME, organism-based
Mus musculus [58] = experiment: Tested for biodistribution of radioactivity after 24 hr of intravenous injection in mice lung; assay type: ADME, organism-based

- Dose/organ (Mus musculus [1]): 2.88%
- Dose/organ (Mus musculus [2]): 1.06%
- Dose/organ (Mus musculus [3]): 3.55%
- Dose/organ (Mus musculus [4]): 1.31%
- Dose/organ (Mus musculus [5]): 10.09%
- Dose/organ (Mus musculus [6]): 4.23%
- Dose/organ (Mus musculus [7]): 1.3%
- Dose/organ (Mus musculus [8]): 7.97%
- Dose/organ (Mus musculus [9]): 0.44%
- Dose/organ (Mus musculus [10]): 0.34%
- Dose/organ (Mus musculus [11]): 0.66%
- Dose/organ (Mus musculus [12]): 0.49%
- Dose/g (Mus musculus [13]): 23.13%
- Dose/organ (Mus musculus [14]): 8.15%
- Dose/organ (Mus musculus [15]): 2.03%
- Dose/organ (Mus musculus [16]): 3.84%
- Dose/organ (Mus musculus [17]): 38.38%
- Dose/organ (Mus musculus [18]): 0.42%
- Dose/organ (Mus musculus [19]): 6.38%
- Dose/organ (Mus musculus [20]): 2.43%
- Dose/organ (Mus musculus [21]): 11.17%
- Dose/organ (Mus musculus [22]): 5.48%
- Dose/organ (Mus musculus [23]): 0.81%
- Dose/organ (Mus musculus [24]): 9.83%
- Dose/g (Mus musculus [25]): 14.39%
- Dose/organ (Mus musculus [26]): 1.83%
- Dose/organ (Mus musculus [27]): 7.07%
- Dose/organ (Mus musculus [28]): 7.4%
- Dose/organ (Mus musculus [29]): 4.94%
- Dose/organ (Mus musculus [30]): 6.31%
- Dose/organ (Mus musculus [31]): 3.37%
- Dose/organ (Mus musculus [32]): 11.1%
- Dose/organ (Mus musculus [33]): 0.55%
- Dose/organ (Mus musculus [34]): 4.25%
- Dose/organ (Mus musculus [35]): 0.34%
- Dose/organ (Mus musculus [36]): 5.7%
- Dose/organ (Mus musculus [37]): 6.57%
- Dose/organ (Mus musculus [38]): 3.27%
- Dose/g (Mus musculus [39]): 12.64%
- Dose/organ (Mus musculus [40]): 0.83%
- Dose/g (Mus musculus [41]): 31.31%
- Dose/organ (Mus musculus [42]): 0.25%
- Dose/organ (Mus musculus [43]): 0.85%
- Dose/organ (Mus musculus [44]): 6.9%
- Dose/organ (Mus musculus [45]): 0.72%
- Dose/organ (Mus musculus [46]): 0.4%
- Dose/organ (Mus musculus [47]): 11.91%
- Dose/organ (Mus musculus [48]): 15.66%
- Dose/organ (Mus musculus [49]): 0.91%
- Dose/organ (Mus musculus [50]): 0.83%
- Dose/g (Mus musculus [51]): 26.13%
- Dose/organ (Mus musculus [52]): 3.34%
- Dose/organ (Mus musculus [53]): 2.73%
- Dose/g (Mus musculus [54]): 11.5%
- Dose/organ (Mus musculus [55]): 2.35%
- Dose/organ (Mus musculus [56]): 0.55%
- Dose/organ (Mus musculus [57]): 14.38%
- Dose/organ (Mus musculus [58]): 5.55%
Compound: NCCCCC(N)C(=O)NC(=O)c1cccc(I)c1 (stereo not drawn)
